Converted amounts (≈) assume the structure as drawn. Where two headings read alike, the source gives them in different places.

28 compounds from patent US4977173A, “Aminomethyl oxooxazolidinyl ethenylbenzene derivatives useful as antibacterial agents” (E. I. Du Pont de Nemours and Company, priority 1989, dated 1990) can be followed below.

The subject of experiment [1] is Staphylococcus aureus. Briefly: In vitro broth microdilution minimal inhibitory concentration (24-hour MIC), Staphylococcus aureus. The experiment is classed as cell-based. The settings on record: Mueller-Hinton broth, standard microdilution; for MIC: read-out: Minimum Inhibitory Concentration. The source says:
(§1) As shown in Table VII compounds of formula I exert an in vitro antibacterial effect.

In the next experiment the test system is Escherichia coli. Briefly: In vitro broth microdilution minimal inhibitory concentration (24-hour MIC), Escherichia coli. It is filed as cell-based. Particulars: Mueller-Hinton broth, standard microdilution; for MIC: read-out: Minimum Inhibitory Concentration.
Source text: as §1
A general note: Broth dilution looks for growth in wells or tubes with falling amounts of substance.

The test system of experiment [2] is Staphylococcus aureus. Briefly: In vivo activity against Staphylococcus aureus in an acute lethal mouse model. The settings on record: mice infected intraperitoneally, dosed one and four hours post-infection, survival on seventh day. On the procedure:
Determinations of in vivo efficacy are performed by inoculating mice intraperitoneally with cultures of the infecting organism diluted to produce 100% mortality in control animals within twenty-four hours. The culture of S. aureus used to infect the animals was diluted to the required bacterial density using 5% aqueous hog gastric mucin. The compounds are dissolved or suspended in 0.25% aqueous Methocel® (Methocel®: Hydroxypropyl Methylcellulose, E15 Premium, Dow Chemical Company) for oral administration or sterile distilled water containing 5% dimethylsulfoxide (Fisher Scientific Company, Fairlawn, N.J.) for subcutaneous administration. The mice are dosed at one hour and at four hours post-infection. Mortality is recorded daily until test termination seven days post infection. The number of survivors in each treatment group on the seventh day after infection is used in the calculation of the ED50, the dose of compound that protects 50% of the mice (Litchfield, J. T. and Wildoxon. A simplified method for evaluating dose-effect experiments. J. Pharmacol Exp. Ther., 96:99-113, 1949).

[3] abbreviates: Staphylococcus aureus, 168 h, Oral Administration, read-out: ED50.
The mark [4] stands for this setting: Staphylococcus aureus, sc, 168 h, Subcutaneous Administration, read-out: ED50.
Where [5] appears, read: Subcutaneous Administration, 10080 min.

Consider `CC(=O)NC[C@H]1CN(c2ccc(/C=C(\C)[N+](=O)[O-])cc2)C(=O)O1` [Example 20, (l)-N-[3-[4-(E-2-Nitro-2-methylethenyl)phenyl]-2-oxooxazolidin-5-ylmethyl]acetamide], for which the values for the MIC in the experiment with Staphylococcus aureus [1] and in the experiment on Escherichia coli were 0.1 µg/mL (≈ 0.313 µM) and > 128 µg/mL, respectively. Moreover, the results for the ED50 in the experiment with Staphylococcus aureus [2] (setting [3]) and in the experiment on Staphylococcus aureus [2] (setting [4]) were 14.1 mg/kg and 9.1 mg/kg, respectively.

Consider `CC(=O)NC[C@H]1CN(c2ccc(/C=C/[N+](=O)[O-])cc2)C(=O)O1` [Example 19, (l)-N-[3-[4-(E-Nitroethenyl)phenyl]-2-oxooxazolidin-5-ylmethyl]acetamide], for which the MIC in the experiment on Staphylococcus aureus [1] is 8 µg/mL (≈ 26.2 µM); with Escherichia coli, > 128 µg/mL. Besides, the ED50 in the experiment with Staphylococcus aureus [2] (setting [3]) and in the experiment on Staphylococcus aureus [2] (setting [4]) was > 90 mg/kg each time.

With `CC(=O)/C=C/c1ccc(N2C[C@H](CNC(C)=O)OC2=O)cc1` [Example 60], the MIC with Staphylococcus aureus [1] is 4 µg/mL (≈ 13.2 µM); with Escherichia coli, > 128 µg/mL. In addition, the ED50 in the experiment on Staphylococcus aureus [2] (setting [4]) was determined as 51.9 mg/kg.

`CCOC(=O)/C=C/c1ccc(N2C[C@H](CNC(C)=O)OC2=O)cc1` [Example 22, (l)-N-[3-[4-(E-2-Carboethoxyethenyl)-phenyl]-2-oxooxazolidin-5-ylmethyl]acetamide]: the MIC was 8 µg/mL (≈ 24.1 µM) in the experiment on Staphylococcus aureus [1] and > 128 µg/mL in the experiment on Escherichia coli. The ED50 in the experiment on Staphylococcus aureus [2] (setting [3]) and in the experiment on Staphylococcus aureus [2] (setting [4]) was > 90 mg/kg in each case.

Regarding `CC(=O)NC[C@H]1CN(c2ccc(/C=C/C(N)=O)cc2)C(=O)O1` [Example 62], the MIC is 32 µg/mL (≈ 105 µM) in the experiment with Staphylococcus aureus [1] and > 128 µg/mL in the experiment with Escherichia coli. The ED50 in the experiment on Staphylococcus aureus [2] (setting [4]) came out at 20.4 mg/kg.

On to `CC/C(=C\C#N)c1ccc(N2C[C@H](CNC(C)=O)OC2=O)cc1` [Example 7], for which the values for the MIC in the experiment on Staphylococcus aureus [1] and in the experiment on Escherichia coli were 1 µg/mL (≈ 3.19 µM) and > 128 µg/mL, respectively. In addition, the ED50 in the experiment with Staphylococcus aureus [2] (setting [3]) is 3.1 mg/kg; with Staphylococcus aureus [2] (setting [4]), 2.1 mg/kg.

Consider `CC(=O)NC[C@H]1CN(c2ccc(/C(C)=C(\C)C#N)cc2)C(=O)O1` [Example 9], for which the MIC in the experiment with Staphylococcus aureus [1] is 2 µg/mL (≈ 6.38 µM); in the experiment with Escherichia coli, > 128 µg/mL. Also, the ED50 in the experiment on Staphylococcus aureus [2] (setting [3]) came to 3.8 mg/kg; with Staphylococcus aureus [2] (setting [4]), 2.5 mg/kg.

For `CC(=O)NC[C@H]1CN(c2ccc(/C=C/C(=O)N(C)C)cc2)C(=O)O1` [Example 61], the results for the MIC in the experiment with Staphylococcus aureus [1] and in the experiment on Escherichia coli were 32 µg/mL (≈ 96.6 µM) and > 128 µg/mL, respectively. Besides, in the experiment on Staphylococcus aureus [2] (setting [4]), the ED50 turned out to be 39.5 mg/kg.

For `CC(=O)NC[C@H]1CN(c2ccc(/C(C)=C/C#N)c(C)c2)C(=O)O1` [Example 3], the MIC in the experiment with Staphylococcus aureus [1] is 2 µg/mL (≈ 6.38 µM); in the experiment with Escherichia coli it was > 128 µg/mL. The 50% effective dose (ED50) came to 6.4 mg/kg with Staphylococcus aureus [2] (setting [3]) and 5.1 mg/kg in the experiment with Staphylococcus aureus [2] (setting [4]).

`CC(=O)NC[C@H]1CN(c2ccc(C=C(C#N)C#N)cc2)C(=O)O1` [Example 26]: the MIC in the experiment on Staphylococcus aureus [1] was 16 µg/mL (≈ 51.6 µM); in the experiment on Escherichia coli, > 128 µg/mL. The ED50 in the experiment with Staphylococcus aureus [2] (setting [3]) and in the experiment with Staphylococcus aureus [2] (setting [4]) was > 90 mg/kg each time.

In the case of `CC(=O)NC[C@H]1CN(c2ccc(/C=C/C#N)cc2)C(=O)O1` [Example 2, (l)-N-[3-[4-(E-2-Cyanoethenyl)phenyl]-2-oxooxazolidin-5-ylmethyl]acetamide], the values for the MIC in the experiment on Staphylococcus aureus [1] and with Escherichia coli were 4 µg/mL (≈ 14 µM) and > 128 µg/mL, respectively. Besides, the ED50 with Staphylococcus aureus [2] (setting [3]) amounted to 3.5 mg/kg; with Staphylococcus aureus [2] (setting [4]), 2.8 mg/kg.

As for `CCC/C(=C\c1ccc(N2C[C@H](CNC(C)=O)OC2=O)cc1)[N+](=O)[O-]` [Example 30], the MIC in the experiment with Staphylococcus aureus [1] was 4 µg/mL (≈ 11.5 µM); in the experiment with Escherichia coli, > 128 µg/mL. Besides, the median effective dose (ED50) in the experiment with Staphylococcus aureus [2] (setting [3]) and in the experiment with Staphylococcus aureus [2] (setting [4]) was > 90 mg/kg in each case.

For `CC(=O)NC[C@H]1CN(c2ccc(C=C(C(C)=O)C(C)=O)cc2)C(=O)O1` [Example 28], the MIC in the experiment on Staphylococcus aureus [1] is 16 µg/mL (≈ 46.5 µM); in the experiment with Escherichia coli it was > 128 µg/mL. Also, the ED50 with Staphylococcus aureus [2] (setting [3]) and in the experiment on Staphylococcus aureus [2] (setting [4]) was > 90 mg/kg throughout.

Regarding `COC(=O)/C=C/c1ccc(N2C[C@H](CNC(C)=O)OC2=O)cc1` [Example 59], the MIC in the experiment with Staphylococcus aureus [1] was 8 µg/mL (≈ 25.1 µM); with Escherichia coli it was > 128 µg/mL. The ED50 in the experiment with Staphylococcus aureus [2] (setting [4]) is > 90 mg/kg.

`CC(=O)NC[C@H]1CN(c2ccc(/C=C(\C)C#N)cc2)C(=O)O1` [Example 12]: the MIC with Staphylococcus aureus [1] is 1 µg/mL (≈ 3.34 µM); in the experiment with Escherichia coli, > 128 µg/mL. Besides, the ED50 with Staphylococcus aureus [2] (setting [3]) worked out at 2.9 mg/kg; with Staphylococcus aureus [2] (setting [4]) it was 1.9 mg/kg.

Turning to `CC(=O)NC[C@H]1CN(c2ccc(/C(=C/C#N)c3ccc(F)cc3)cc2)C(=O)O1` [Example 6], the MIC in the experiment on Staphylococcus aureus [1] and in the experiment with Escherichia coli was > 128 µg/mL each time.

With `CC(=O)NC[C@H]1CN(c2ccc(/C(C)=C/C#N)cc2)C(=O)O1` [Example 1, (l)-N-[3-[4-(E-1-Methyl-2-cyanoethenyl)phenyl]-2-oxooxazolidin-5-ylmethyl]acetamide], the MIC was 1 µg/mL (≈ 3.34 µM) with Staphylococcus aureus [1] and > 128 µg/mL with Escherichia coli. For the same compound, the ED50 in the experiment with Staphylococcus aureus [2] (setting [3]) is 1.3 mg/kg; with Staphylococcus aureus [2] (setting [4]), 0.8 mg/kg.

As for `CSC(C#N)=Cc1ccc(N2CC(CNC(C)=O)OC2=O)cc1` (centres unmarked) [Example 21, (l)-N-[3-(4-(2-Cyano-2-methylsulfenylethenyl)phenyl]-2-oxooxazolidin-5-ylmethyl]acetamide], the “Minimum Inhibitory Concentration” value in the experiment on Staphylococcus aureus [1] was 4 µg/mL; with Escherichia coli, > 128 µg/mL. In addition, the ED50 in the experiment with Staphylococcus aureus [2] (Oral Administration, 10080 min) is > 90 mg/kg; with Staphylococcus aureus [2] (setting [5]), 11.8 mg/kg.

`CSC=Cc1ccc(N2CC(CNC(C)=O)OC2=O)cc1` (centres unmarked) [Example 24, (l)-N-[3-[4-(2-Methylsulfenylethenyl)-phenyl]-2-oxooxazolidin-5-ylmethyl]acetamide]: the entries for the “Minimum Inhibitory Concentration” value in the experiment with Staphylococcus aureus [1] and in the experiment on Escherichia coli were 8 µg/mL and > 128 µg/mL, respectively. For the same compound, the ED50 is listed as 33.3 mg/kg in the experiment with Staphylococcus aureus [2] (Oral Administration, 10080 min) and 14.6 mg/kg in the experiment with Staphylococcus aureus [2] (setting [5]).

As for `CC/C(=C\c1ccc(N2C[C@H](CNC(C)=O)OC2=O)cc1)[N+](=O)[O-]` [Example 29], the results for the MIC in the experiment on Staphylococcus aureus [1] and with Escherichia coli were 1 µg/mL (≈ 3 µM) and > 128 µg/mL, respectively. Further, the ED50 in the experiment with Staphylococcus aureus [2] (setting [3]) and in the experiment on Staphylococcus aureus [2] (setting [4]) was > 90 mg/kg each time.

On to `CC(=O)NC[C@H]1CN(c2ccc(/C=C/C=O)cc2)C(=O)O1` [Example 25, (l)-N-[3-[4-(E-2-Formylethenyl)phenyl]-2-oxooxazolidin-5-ylmethyl]acetamide], for which the figures for the MIC with Staphylococcus aureus [1] and with Escherichia coli were 0.5 µg/mL (≈ 1.73 µM) and > 128 µg/mL, respectively. For the same compound, the ED50 in the experiment on Staphylococcus aureus [2] (setting [3]) and in the experiment with Staphylococcus aureus [2] (setting [4]) was > 80 mg/kg each time.

As to `CC(=O)NC[C@H]1CN(c2ccc(/C(C)=C(/C)C#N)cc2)C(=O)O1` [Example 11], the MIC in the experiment with Staphylococcus aureus [1] was 8 µg/mL (≈ 25.5 µM); in the experiment on Escherichia coli it was > 128 µg/mL.

With `CC(=O)NC[C@H]1CN(c2ccc(C3=CC(=O)CCC3)cc2)C(=O)O1` [Example 68], the MIC in the experiment on Staphylococcus aureus [1] is 0.5 µg/mL (≈ 1.52 µM); with Escherichia coli it was > 128 µg/mL. Besides, the median effective dose (ED50) in the experiment with Staphylococcus aureus [2] (setting [3]) came out at 2.4 mg/kg; with Staphylococcus aureus [2] (setting [4]), 1.7 mg/kg.

On to `COC(=O)/C=C(\C)c1ccc(N2C[C@H](CNC(C)=O)OC2=O)cc1` [Example 58, (l)-N-[3-[4-(E-1-Methyl-2-carbomethoxyethenyl)phenyl]-2-oxooxazolidin-5-ylmethyl]acetamide], for which the results for the MIC in the experiment on Staphylococcus aureus [1] and with Escherichia coli were 2 µg/mL (≈ 6.02 µM) and > 128 µg/mL, respectively. Moreover, the ED50 in the experiment on Staphylococcus aureus [2] (setting [4]) was 46.2 mg/kg.

In the case of `CC(=O)NC[C@H]1CN(c2ccc(/C(C)=C/C(N)=O)cc2)C(=O)O1` [Example 23, (l)-N-[3-[4-(E-1-Methyl-2-carbamidoethenyl)phenyl]-2-oxooxazolidin-5-ylmethyl]acetamide], the figures for the MIC in the experiment with Staphylococcus aureus [1] and in the experiment with Escherichia coli were 4 µg/mL (≈ 12.6 µM) and > 128 µg/mL, respectively. Besides, the 50% effective dose (ED50) stood at 26.4 mg/kg with Staphylococcus aureus [2] (setting [3]) and 36.2 mg/kg in the experiment on Staphylococcus aureus [2] (setting [4]).

Consider `CCC/C(=C\C#N)c1ccc(N2C[C@H](CNC(C)=O)OC2=O)cc1` [Example 8], for which the figures for the MIC with Staphylococcus aureus [1] and in the experiment on Escherichia coli were 2 µg/mL (≈ 6.11 µM) and > 128 µg/mL, respectively. In addition, the ED50 in the experiment on Staphylococcus aureus [2] (setting [3]) and with Staphylococcus aureus [2] (setting [4]) was > 90 mg/kg each time.

For the compound `CC(=O)NCC1CN(c2ccc(/C(=C/C#N)c3ccccc3)cc2)C(=O)O1` (racemic) [Example 5], the figures for the MIC in the experiment on Staphylococcus aureus [1] and in the experiment with Escherichia coli were 32 µg/mL (≈ 88.5 µM) and > 128 µg/mL, respectively. Moreover, the ED50 with Staphylococcus aureus [2] (setting [3]) and in the experiment on Staphylococcus aureus [2] (setting [4]) was > 90 mg/kg throughout.

With `CC(=O)NC[C@H]1CN(c2ccc(/C(C)=C\C#N)cc2)C(=O)O1` [Example 13], the MIC in the experiment with Staphylococcus aureus [1] is 8 µg/mL (≈ 26.7 µM); in the experiment on Escherichia coli it was > 128 µg/mL.

For orientation: ED50 means the dose at which the effect has come halfway, by size or by number of responders.
